Results: ChEMBL document CHEMBL1759930, “Structural requirements of (E)-6-benzylidene-4a-methyl-4,4a,5,6,7,8-hexahydronaphthalen-2(3H)-one derivatives as novel melanogenesis inhibitors” (Bioorg Med Chem Lett, 2011)
pIC50: −log10 of the molar value.

Tests used:
[1] = tested on: B16; assay: Inhibition of alpha-MSH -stimulated melanogenesis in mouse B16 cells assessed as melanin release at 10 uM after 3 days; format: functional; conditions: B16, 72 h
[2] = tested on: B16; assay: Inhibition of alpha-MSH -stimulated melanogenesis in mouse B16 cells assessed as melanin release after 3 days; format: functional, cell-based; conditions: B16, 72 h

Compound | inhibition at 10 µM [1] | pIC50 [2]
CC12CCC3(C=C1CC/C(=C\c1cccc4ccccc14)C2=O)SCCS3 (stereo not given) | 85% | 4.94
CC12CCC3(C=C1CC/C(=C\c1ccc(OCc4ccccc4)cc1)C2=O)SCCS3 (stereo not given) | 80% | 4.87
CCc1ccc(/C=C2\CCC3=CC4(CCC3(C)C2=O)SCCS4)cc1 (stereo not given) | 80% | 4.73
COc1ccc(/C=C2\CCC3=CC4(CCC3(C)C2=O)SCCS4)cc1 (stereo not given) | > 100% | 5.46
Cc1ccc(/C=C2\CCC3=CC(=O)CCC3(C)C2=O)cc1 (stereo not given) | 60% | 4.64
Cc1ccc(/C=C2\CCCC(C)C2=O)cc1 (stereo not given) | < 10% | < 4.52
CC12CCC3(C=C1CC/C(=C\c1ccc(Cl)cc1)C2=O)SCCS3 (stereo not given) | 35% | < 4.52
CC12CCC3(C=C1CC/C(=C\c1ccc(O)cc1)C2=O)SCCS3 (stereo not given) | 96% | 5.37
COc1ccc(/C=C2\CCC3=CC4(CCC3(C)C2=O)SCCS4)cc1OC (stereo not given) | 43% | < 4.52
CC12CCC3(C=C1CCCC2=O)SCCS3 (stereo not given) | < 10% | < 4.52
CC12CCC3(C=C1CC/C(=C\c1ccc(C(C)(C)C)cc1)C2=O)SCCS3 (stereo not given) | 83% | 4.87
COc1ccc(/C=C2\CCCC(C)C2=O)cc1 (stereo not given) | < 10% | < 4.52
CC12CCC3(C=C1CC/C(=C\c1ccccc1)C2=O)SCCS3 (stereo not given) | 85% | 4.98
OC[C@H]1O[C@@H](Oc2ccc(O)cc2)[C@H](O)[C@@H](O)[C@@H]1O [ARBUTIN] |  | 3.92
CC1CCC/C(=C\c2ccccc2)C1=O (stereo not given) | < 10% | < 4.52
COCOc1ccc(/C=C2\CCC3=CC4(CCC3(C)C2=O)SCCS4)cc1 (stereo not given) | 92% | 5.22
Cc1ccc(/C=C2\CCC3=CC4(CCC3(C)C2=O)SCCS4)cc1 (stereo not given) | > 100% | 4.77
CC12CCC3(C=C1CC/C(=C\C=C\c1ccccc1)C2=O)SCCS3 (stereo not given) | 75% | 4.78
CC1CCC/C(=C\c2ccc(O)cc2)C1=O (stereo not given) | < 10% | < 4.52
COc1ccc(/C=C2\CCC3=CC(=O)CCC3(C)C2=O)cc1 (stereo not given) | 72% | 5.22
CC1CCC/C(=C\c2ccc(Cl)cc2)C1=O (stereo not given) | < 10% | < 4.52
CN(C)c1ccc(/C=C2\CCC3=CC4(CCC3(C)C2=O)SCCS4)cc1 (stereo not given) | 65% | 5.12
CC12CCC3(C=C1CC/C(=C\c1ccc(Cl)c(Cl)c1)C2=O)SCCS3 (stereo not given) | 62% | 4.59
